The record followed here is the supplement of paper PMC10307832.

One experiment has as its system NCI-H650. The experiment is described as follows: relative viability (nuclei count vs DMSO), 5 days (fraction); higher = more cells survive. As to conditions: first compound 2.53 µM. The method, boiled down:
(§1)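 Nuclei were stained with Hoechst during a one-step fixation (final 0.05% Triton X-100, 1% formaldehyde, 1 ug/ml Hoechst) carried out 5 days after dosing, then counted on 4× images. The cells, lung cancer lines in 1536-well plates, had been dosed by pin tool the day after seeding with one drug alone or a fixed anchor-drug dose plus five library-drug doses (not always all listed) in √10 steps. Relative viability is the nuclei count in treated wells divided by that in vehicle wells, and each value is the median of duplicate plates.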
The compound `CCCCCCCCCCCC1=C(O)C(=O)C=C(O)C1=O` [Embelin] + CCNC(=O)c1noc(-c2cc(C(C)C)c(O)cc2O)c1-c1ccc(CN2CCOCC2)cc1 [Luminespib] (partner 0.01 µM) showed a relative viability of 0.888.
Regarding `CCCCCCCCCCCC1=C(O)C(=O)C=C(O)C1=O` [Embelin] + Cc1nc(Nc2ncc(C(=O)Nc3c(C)cccc3Cl)s2)cc(N2CCN(CCO)CC2)n1 [Dasatinib] (partner 0.075 µM), the relative viability came to 0.368.
`CCCCCCCCCCCC1=C(O)C(=O)C=C(O)C1=O` [Embelin] + NC(=O)Nc1cc(-c2cccc(F)c2)sc1C(=O)N[C@H]1CCCNC1 [AZD7762] (partner 0.2 µM): the relative viability was determined as 1.01.
For `CCCCCCCCCCCC1=C(O)C(=O)C=C(O)C1=O` [Embelin] + CC(=O)c1c(C)c2cnc(Nc3ccc(N4CCNCC4)cn3)nc2n(C2CCCC2)c1=O [Palbociclib] (partner 0.5 µM), the relative viability was determined as 0.34.

Staying with this experiment, now noted: first compound 8 µM.
Regarding `CCCCCCCCCCCC1=C(O)C(=O)C=C(O)C1=O` [Embelin] + N=C(N)NC(=N)NCCc1ccccc1 [Phenformin] (partner 250 µM), the relative viability amounted to 0.44.
Compound `CCCCCCCCCCCC1=C(O)C(=O)C=C(O)C1=O` [Embelin] + CCNC(=O)c1noc(-c2cc(C(C)C)c(O)cc2O)c1-c1ccc(CN2CCOCC2)cc1 [Luminespib] (partner 0.01 µM) came in with a relative viability of 0.637.
For `CCCCCCCCCCCC1=C(O)C(=O)C=C(O)C1=O` [Embelin] + Cc1nc(Nc2ncc(C(=O)Nc3c(C)cccc3Cl)s2)cc(N2CCN(CCO)CC2)n1 [Dasatinib] (partner 0.075 µM), the relative viability was 0.383.
As to `CCCCCCCCCCCC1=C(O)C(=O)C=C(O)C1=O` [Embelin] + NC(=O)Nc1cc(-c2cccc(F)c2)sc1C(=O)N[C@H]1CCCNC1 [AZD7762] (partner 0.2 µM), the relative viability was found to be 1.27.
On the same count and under the same terms, then `CCCCCCCCCCCC1=C(O)C(=O)C=C(O)C1=O` [Embelin] + CC(=O)c1c(C)c2cnc(Nc3ccc(N4CCNCC4)cn3)nc2n(C2CCCC2)c1=O [Palbociclib] (partner 0.5 µM), with 0.313.

The test system of the next experiment is HOP-62. Described as above. The note with it: first compound 0.08 µM. The method, boiled down:
as §1
`CCCCCCCCCCCC1=C(O)C(=O)C=C(O)C1=O` [Embelin] + N=C(N)NC(=N)NCCc1ccccc1 [Phenformin] (partner 250 µM): the relative viability came to 0.649.
On the same count and under the same terms, then `CCCCCCCCCCCC1=C(O)C(=O)C=C(O)C1=O` [Embelin] + CCNC(=O)c1noc(-c2cc(C(C)C)c(O)cc2O)c1-c1ccc(CN2CCOCC2)cc1 [Luminespib] (partner 0.01 µM), with 0.971; and `CCCCCCCCCCCC1=C(O)C(=O)C=C(O)C1=O` [Embelin] + Cc1nc(Nc2ncc(C(=O)Nc3c(C)cccc3Cl)s2)cc(N2CCN(CCO)CC2)n1 [Dasatinib] (partner 0.075 µM), with 0.66.
Regarding `CCCCCCCCCCCC1=C(O)C(=O)C=C(O)C1=O` [Embelin] + NC(=O)Nc1cc(-c2cccc(F)c2)sc1C(=O)N[C@H]1CCCNC1 [AZD7762] (partner 0.2 µM), the relative viability came to 0.384.
`CCCCCCCCCCCC1=C(O)C(=O)C=C(O)C1=O` [Embelin] + CC(=O)c1c(C)c2cnc(Nc3ccc(N4CCNCC4)cn3)nc2n(C2CCCC2)c1=O [Palbociclib] (partner 0.5 µM) yielded a relative viability of 0.433.

Staying with this experiment, now noted: first compound 0.8 µM.
`CCCCCCCCCCCC1=C(O)C(=O)C=C(O)C1=O` [Embelin] + N=C(N)NC(=N)NCCc1ccccc1 [Phenformin] (partner 250 µM) had a relative viability of 0.701.
Regarding `CCCCCCCCCCCC1=C(O)C(=O)C=C(O)C1=O` [Embelin] + CCNC(=O)c1noc(-c2cc(C(C)C)c(O)cc2O)c1-c1ccc(CN2CCOCC2)cc1 [Luminespib] (partner 0.01 µM), the relative viability was found to be 0.958.
The same measure, in the same setting: then `CCCCCCCCCCCC1=C(O)C(=O)C=C(O)C1=O` [Embelin] + Cc1nc(Nc2ncc(C(=O)Nc3c(C)cccc3Cl)s2)cc(N2CCN(CCO)CC2)n1 [Dasatinib] (partner 0.075 µM), with 0.776; and `CCCCCCCCCCCC1=C(O)C(=O)C=C(O)C1=O` [Embelin] + NC(=O)Nc1cc(-c2cccc(F)c2)sc1C(=O)N[C@H]1CCCNC1 [AZD7762] (partner 0.2 µM), with 0.568.
The same measure, in the same setting: then `CCCCCCCCCCCC1=C(O)C(=O)C=C(O)C1=O` [Embelin] + CC(=O)c1c(C)c2cnc(Nc3ccc(N4CCNCC4)cn3)nc2n(C2CCCC2)c1=O [Palbociclib] (partner 0.5 µM), with 0.489.

Still in this experiment, the particulars now being: first compound 2.53 µM.
Regarding `CCCCCCCCCCCC1=C(O)C(=O)C=C(O)C1=O` [Embelin] + N=C(N)NC(=N)NCCc1ccccc1 [Phenformin] (partner 250 µM), the relative viability amounted to 0.777.
`CCCCCCCCCCCC1=C(O)C(=O)C=C(O)C1=O` [Embelin] + CCNC(=O)c1noc(-c2cc(C(C)C)c(O)cc2O)c1-c1ccc(CN2CCOCC2)cc1 [Luminespib] (partner 0.01 µM) registered a relative viability of 1.07.
As for `CCCCCCCCCCCC1=C(O)C(=O)C=C(O)C1=O` [Embelin] + Cc1nc(Nc2ncc(C(=O)Nc3c(C)cccc3Cl)s2)cc(N2CCN(CCO)CC2)n1 [Dasatinib] (partner 0.075 µM), the relative viability was 0.68.
For the compound `CCCCCCCCCCCC1=C(O)C(=O)C=C(O)C1=O` [Embelin] + NC(=O)Nc1cc(-c2cccc(F)c2)sc1C(=O)N[C@H]1CCCNC1 [AZD7762] (partner 0.2 µM), the relative viability is 0.734.
Still for that read-out and setting: under `CCCCCCCCCCCC1=C(O)C(=O)C=C(O)C1=O` [Embelin] + CC(=O)c1c(C)c2cnc(Nc3ccc(N4CCNCC4)cn3)nc2n(C2CCCC2)c1=O [Palbociclib] (partner 0.5 µM) stands 0.451.

The same experiment, now with this note: first compound 8 µM.
The compound `CCCCCCCCCCCC1=C(O)C(=O)C=C(O)C1=O` [Embelin] + N=C(N)NC(=N)NCCc1ccccc1 [Phenformin] (partner 250 µM) had a relative viability of 0.719.
The compound `CCCCCCCCCCCC1=C(O)C(=O)C=C(O)C1=O` [Embelin] + CCNC(=O)c1noc(-c2cc(C(C)C)c(O)cc2O)c1-c1ccc(CN2CCOCC2)cc1 [Luminespib] (partner 0.01 µM) yielded a relative viability of 0.842.
Compound `CCCCCCCCCCCC1=C(O)C(=O)C=C(O)C1=O` [Embelin] + Cc1nc(Nc2ncc(C(=O)Nc3c(C)cccc3Cl)s2)cc(N2CCN(CCO)CC2)n1 [Dasatinib] (partner 0.075 µM) displayed a relative viability of 0.654.
